Consider four molecules from patent US20260063641A1, “COMPOSITIONS AND METHODS FOR LABELING AND DETECTING BINDING PARTNERS” (UNIVERSITY OF UTAH RESEARCH FOUNDATION, priority 2022, published 2026).

Holding throughout (format): cell-based
Series [1] deals with T1, NLuc-FKBP12F36V (Homo sapiens, UniProt P62942, F37V).
T1 construct: expressed in transfected cells
Kind of series: FKBP12F36V cellular target engagement assay (competition with dTAG-13, NLuc/FLuc signal). To be noted: for competitive displacement of dTAG-13 (FKBP12F36V cellular target engagement): mean±S.D. of n=3 technical replicates, FIG. 4D-F. The source says:
This method, named the biotin targeting chimera (BioTAC) system, uses bifunctional molecules composed of a compound-of-interest linked to selective FKBP12F36V recruiter orthoAP1867, to recruit a ligandable proximity labeling enzyme (mTurbo-FKBP12F36V) to compound-bound complexes enabling their biotinylation and subsequent affinity purification (FIG. TA-B). To benchmark the BioTAC system for accurate detection of the direct targets of ligands the well-characterized BET protein inhibitor (+)-JQ1, which potently binds BRD2, BRD3 and BRD4 (as well as the testes-specific BET protein BRDT), was selected as a test case. A series of bifunctional molecules consisting of (+)-JQ1 conjugated to […] were synthesized via a variable linker (FIG. 1B, FIG. 4A-C). (+)-JQ1-bifunctional molecule cell permeability was measured using an FKBP12F36V cellular target engagement assay adapted from Nabet et. al Nat Commun 11, 4687 (2020). Briefly, FKBP12F36V binding molecules compete with an FKBP12F36V targeting PROTAC (dTAG-13), for NLuc-FKBP12F36V occupancy, rescuing degradation and resulting in an increase in NLuc/FLuc (control) signal relative to DMSO-treated cells. All synthesized compounds were comparably cell permeable (FIG. 4D-E).

Series [2] concerns the target T2, MEK1 (Homo sapiens, UniProt Q02750).
T2 construct: Immunoblot analysis of MEK1/2 enrichment following treatment of HEK293 cells; host or cells: HEK293 transiently transfected with the BioTAC plasmid
In words: BioTAC proximity labeling, streptavidin enrichment and immunoblot for MEK1. To be noted: HEK293 with miniTurbo-FKBP12F36V, 100 μM biotin, dose and time point optimization. How it is done: (§1) Bifunctional trametinib analogue JWJ-01-280/Cpd2 was synthesized, with a linker attachment informed by a reported trametinib-derived BRET probe named Tram-bo (FIG. 3B). […] The ability of the BioTAC system to detect both known interactors of trametinib was evaluated by Western blot, as described above.
(§2) 0.6 million HEK293 cells were plated into wells containing 1 mL of complete media (DMEM, 10% FBS, 1% pen/strep) and incubated overnight. Cells were transiently transfected with 100 μL of OptiMEM media containing 1 μg of BioTAC plasmid and 3 μL of TransIT-2020 transfection reagent (Mirus, MIR5400) for 24 hr. Following a media change, cells were pre-treated with parental molecules or DMSO for 10 min, then treated with bifunctional compound for 10 min, and finally labeled in 100 μM biotin for the indicated time. Cells were washed twice with DPBS then harvested into 1.5 mL tubes. […] Protein concentration was determined by BCA assay (Thermo, 23225), then 100 ug protein was rotated overnight at 4° C. with 8 μL of streptavidin magnetic beads (Thermo, 88817) that had been prewashed twice in RIPA lysis buffer. […]

Series [3] concerns the target T3, MEK1:trametinib:KSR1 complex (Homo sapiens, UniProt Q02750).
T3 construct: Immunoblot analysis of MEK1 and KSR1 following treatment of HEK293 cells; host or cells: HEK293 transiently transfected with the BioTAC plasmid
In words: BioTAC detection of molecular glue complex by immunoblot of MEK1 and KSR1. To be noted: 4 hr treatment with 1 μM, 100 μM biotin. How it is done: as §1, §2

The target in series [4] is T4, BRD4 (Homo sapiens, UniProt O60885).
T4 construct: host or cells: HEK293 transiently transfected with the BioTAC plasmid
Kind of series: BioTAC proximity labeling, streptavidin pulldown and western blot for BRD4. To be noted: variable concentrations of free (+)-JQ1 against 1 μM bifunctional (+)-JQ1 recruiters, all timepoints. How it is done:
Next bifunctional molecule guided-proximity labeling experiments were performed using validated reagents. HEK293 cells transiently transfected with mTurbo-FKBP12F36V were treated with 100 μM biotin, 1 μM bifunctional (+)-JQ1 recruiters, and variable concentrations of free (+)-JQ1 to off-compete the bifunctional molecule and rescue biotinylation. Biotinylated proteins were isolated from cell lysates via streptavidin bead pulldown and analyzed by western blot for BRD4, a primary target of (+)-JQ1.
as §2
(In general: In western blotting, separated proteins are transferred to a membrane and probed.)

Entries after “also recorded” stand apart in the source; their conditions may differ.

T1 sequence (P62942 2-108 F37V limits assumed): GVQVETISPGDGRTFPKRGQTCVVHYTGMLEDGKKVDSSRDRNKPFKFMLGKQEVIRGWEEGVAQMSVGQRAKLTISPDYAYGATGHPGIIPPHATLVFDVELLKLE
T3 sequence (Q02750 whole entry, one chain of several): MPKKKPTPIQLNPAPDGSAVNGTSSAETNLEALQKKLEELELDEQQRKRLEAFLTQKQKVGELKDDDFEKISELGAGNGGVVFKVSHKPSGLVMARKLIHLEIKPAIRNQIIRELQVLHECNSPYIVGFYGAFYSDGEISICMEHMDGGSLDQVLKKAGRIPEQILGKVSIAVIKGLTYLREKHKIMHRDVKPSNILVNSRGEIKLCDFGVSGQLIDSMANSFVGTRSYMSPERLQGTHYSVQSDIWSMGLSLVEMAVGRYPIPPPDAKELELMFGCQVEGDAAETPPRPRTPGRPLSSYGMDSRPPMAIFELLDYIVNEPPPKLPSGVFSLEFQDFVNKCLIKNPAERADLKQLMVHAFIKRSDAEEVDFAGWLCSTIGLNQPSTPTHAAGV
T2 sequence (Q02750 whole entry): as the sequence (Q02750 whole entry, one chain of several) above
T2 sequence (as listed by the source partner): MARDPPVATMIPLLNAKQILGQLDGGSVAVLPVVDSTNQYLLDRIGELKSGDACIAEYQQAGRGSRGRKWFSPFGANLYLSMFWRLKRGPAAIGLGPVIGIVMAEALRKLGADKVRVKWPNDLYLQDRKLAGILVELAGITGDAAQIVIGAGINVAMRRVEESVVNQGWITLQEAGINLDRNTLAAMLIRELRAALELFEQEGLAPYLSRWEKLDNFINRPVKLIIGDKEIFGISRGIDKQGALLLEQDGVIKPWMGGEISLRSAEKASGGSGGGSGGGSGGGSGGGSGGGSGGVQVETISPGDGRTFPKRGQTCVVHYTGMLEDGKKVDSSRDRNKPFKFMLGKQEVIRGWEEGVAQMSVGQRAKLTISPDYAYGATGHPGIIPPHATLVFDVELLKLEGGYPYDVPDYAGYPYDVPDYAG

Take `CC[C@H](C(=O)N1CCCC[C@H]1C(=O)O[C@H](CCc1ccc(OC)c(OC)c1)c1ccccc1OCC(=O)NCCOCCOCCC(=O)Nc1cccc(-n2c(=O)n(C3CC3)c(=O)c3c(Nc4ccc(I)cc4F)n(C)c(=O)c(C)c32)c1)c1cc(OC)c(OC)c(OC)c1` [Cpd2, (R)-1-(2-(2-((2-(2-(3-((3-(3-Cyclopropyl-5-((2-fluoro-4-iodophenyl)amino)-6,8-dimethyl-2,4,7-trioxo-3,4,6,7-tetrahydropyrido[4,3-d]pyrimidin-1(2H)-yl)phenyl)amino)-3-oxopropoxy)ethoxy)ethyl)amino)-2-oxoethoxy)phenyl)-3-(3,4-dimethoxyphenyl)propyl (S)-1-((S)-2-(3,4,5-trimethoxyphenyl)butanoyl)piperidine-2-carboxylate]: the “cell permeability measured by FKBP12F36V cellular target engagement assay” value in series [1] (rescue of NLuc-FKBP12F36V degradation by dTAG-13, relative to DMSO) is given as “less cell permeable than the (+)-JQ1 derivatives”. Also, in series [2], the “MEK1 labelling (immunoblot)” value is “efficient MEK1 labelling”. Moreover, the “detection/enrichment of MEK1:trametinib:KSR1 complex (immunoblot of MEK1 and KSR1)” value in series [3] is “detected; also recorded: successful enrichment and competition with trametinib”.

Regarding `CC[C@H](C(=O)N1CCCC[C@H]1C(=O)O[C@H](CCc1ccc(OC)c(OC)c1)c1ccccc1OCC(=O)NCCOCCOCCNC(=O)C[C@@H]1N=C(c2ccc(Cl)cc2)c2c(sc(C)c2C)-n2c(C)nnc21)c1cc(OC)c(OC)c(OC)c1` [JWJ-01-236, (R)-1-(2-((14-((S)-4-(4-Chlorophenyl)-2,3,9-trimethyl-6H-thieno[3,2-f][1,2,4]triazolo[4,3-a][1,4]diazepin-6-yl)-2,13-dioxo-6,9-dioxa-3,12-diazatetradecyl)oxy)phenyl)-3-(3,4-dimethoxyphenyl)propyl (S)-1-((S)-2-(3,4,5-trimethoxyphenyl)butanoyl)piperidine-2-carboxylate], in series [1], the “competitive displacement of dTAG-13 (FKBP12F36V cellular target engagement)” value was “competitive displacement of dTAG-13”.

For the molecule (+)-JQ1 [reference compound], the “BRD4 pulldown in presence of free competitor” value in series [4] was “dose dependent decrease in BRD4 pulldown”.

On to `CC[C@H](C(=O)N1CCCC[C@H]1C(=O)O[C@H](CCc1ccc(OC)c(OC)c1)c1ccccc1OCC(=O)NCCCCCCCCNC(=O)C[C@@H]1N=C(c2ccc(Cl)cc2)c2c(sc(C)c2C)-n2c(C)nnc21)c1cc(OC)c(OC)c(OC)c1` [JWJ-01-255, (R)-1-(2-(2-((8-(2-((S)-4-(4-Chlorophenyl)-2,3,9-trimethyl-6H-thieno[3,2-f][1,2,4]triazolo[4,3-a][1,4]diazepin-6-yl)acetamido)octyl)amino)-2-oxoethoxy)phenyl)-3-(3,4-dimethoxyphenyl)propyl (S)-1-((S)-2-(3,4,5-trimethoxyphenyl)butanoyl)piperidine-2-carboxylate], for which the “competitive displacement of dTAG-13 (FKBP12F36V cellular target engagement)” value in series [1] is recorded as “competitive displacement of dTAG-13”.
